Measured values as given in patent publication US10968227B2, “Isoquinoline ether compounds as mGluR4 allosteric potentiators, compositions, and methods of treating neurological dysfunction” (Vanderbilt University, priority 2016, dated 2021).
In brackets after ≈: the same amount, converted by molar mass.

Key:
Kinetic solubility = assay type: physicochemical; conditions: kinetic from dmso stock
[1] = Human plasma fraction unbound; assay type: in vitro ADME; conditions: read-out: Human Fu Plasma
Rat in vivo clearance = conditions: read-out: Rat in Vivo CL
1A2 = 1A2 (Homo sapiens (Human), UniProt P05177); assay: CYP 1A2 inhibition; assay type: in vitro ADME
Sequence of 1A2 (P05177 whole entry): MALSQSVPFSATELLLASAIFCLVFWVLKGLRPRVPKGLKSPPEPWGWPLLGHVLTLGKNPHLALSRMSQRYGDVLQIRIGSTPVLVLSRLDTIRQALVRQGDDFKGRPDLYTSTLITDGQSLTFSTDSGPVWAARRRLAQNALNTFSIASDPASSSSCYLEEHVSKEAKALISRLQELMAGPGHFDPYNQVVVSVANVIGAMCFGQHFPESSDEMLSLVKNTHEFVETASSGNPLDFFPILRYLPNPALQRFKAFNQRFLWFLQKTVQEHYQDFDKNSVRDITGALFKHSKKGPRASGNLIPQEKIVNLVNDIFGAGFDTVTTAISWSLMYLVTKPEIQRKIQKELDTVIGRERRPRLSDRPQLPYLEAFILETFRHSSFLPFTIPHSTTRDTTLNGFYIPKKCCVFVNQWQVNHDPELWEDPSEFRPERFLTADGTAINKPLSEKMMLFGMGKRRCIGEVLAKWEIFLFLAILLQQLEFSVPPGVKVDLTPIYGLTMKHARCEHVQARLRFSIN

2C9 = 2C9 (Homo sapiens (Human), UniProt P11712); assay: CYP 2C9 inhibition; assay type: in vitro ADME
Sequence of 2C9 (P11712 whole entry): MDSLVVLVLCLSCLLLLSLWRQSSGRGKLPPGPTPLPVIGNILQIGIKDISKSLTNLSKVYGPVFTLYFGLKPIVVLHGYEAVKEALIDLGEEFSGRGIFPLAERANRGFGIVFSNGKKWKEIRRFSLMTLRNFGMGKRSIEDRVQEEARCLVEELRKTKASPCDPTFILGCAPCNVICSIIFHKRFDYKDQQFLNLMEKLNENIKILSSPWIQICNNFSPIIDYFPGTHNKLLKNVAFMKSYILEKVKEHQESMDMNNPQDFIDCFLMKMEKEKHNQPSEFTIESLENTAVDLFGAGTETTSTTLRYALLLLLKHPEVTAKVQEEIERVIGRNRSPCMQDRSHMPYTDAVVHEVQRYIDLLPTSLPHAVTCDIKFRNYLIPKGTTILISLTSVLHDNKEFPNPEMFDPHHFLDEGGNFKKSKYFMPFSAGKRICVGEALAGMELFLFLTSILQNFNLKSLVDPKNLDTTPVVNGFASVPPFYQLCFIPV

[2] = Rat intrinsic and hepatic clearance; assay type: in vitro ADME
2D6 = 2D6 (Homo sapiens (Human), UniProt P10635); assay: CYP 2D6 inhibition; assay type: in vitro ADME
Sequence of 2D6 (P10635 whole entry): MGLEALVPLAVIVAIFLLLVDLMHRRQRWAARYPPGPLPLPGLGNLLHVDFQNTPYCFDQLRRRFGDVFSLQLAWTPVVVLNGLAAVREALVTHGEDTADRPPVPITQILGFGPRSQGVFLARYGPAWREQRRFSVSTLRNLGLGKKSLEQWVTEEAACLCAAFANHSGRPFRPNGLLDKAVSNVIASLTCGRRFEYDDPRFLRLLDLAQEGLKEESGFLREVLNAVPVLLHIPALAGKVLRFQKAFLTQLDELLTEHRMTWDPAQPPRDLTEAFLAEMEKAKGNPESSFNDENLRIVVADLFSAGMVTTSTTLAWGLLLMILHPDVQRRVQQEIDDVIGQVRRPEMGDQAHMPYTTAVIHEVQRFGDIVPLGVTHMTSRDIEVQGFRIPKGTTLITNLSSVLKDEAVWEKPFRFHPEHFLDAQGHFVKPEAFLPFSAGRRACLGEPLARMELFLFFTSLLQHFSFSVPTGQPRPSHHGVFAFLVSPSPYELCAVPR

Brain-plasma partition = assay type: in vivo; conditions: rat; for unbound brain-to-plasma partition coefficient (Kp,uu): unbound brain-plasma ratio, read-out: Brain-Plasma Kp,ω
[3] = Human intrinsic and hepatic clearance; assay type: in vitro ADME
[4] = Rat plasma fraction unbound; assay type: in vitro ADME; conditions: read-out: Rat Fu Plasma
3A4 = 3A4 (Homo sapiens (Human), UniProt P08684); assay: CYP 3A4 inhibition; assay type: in vitro ADME
Sequence of 3A4 (P08684 whole entry): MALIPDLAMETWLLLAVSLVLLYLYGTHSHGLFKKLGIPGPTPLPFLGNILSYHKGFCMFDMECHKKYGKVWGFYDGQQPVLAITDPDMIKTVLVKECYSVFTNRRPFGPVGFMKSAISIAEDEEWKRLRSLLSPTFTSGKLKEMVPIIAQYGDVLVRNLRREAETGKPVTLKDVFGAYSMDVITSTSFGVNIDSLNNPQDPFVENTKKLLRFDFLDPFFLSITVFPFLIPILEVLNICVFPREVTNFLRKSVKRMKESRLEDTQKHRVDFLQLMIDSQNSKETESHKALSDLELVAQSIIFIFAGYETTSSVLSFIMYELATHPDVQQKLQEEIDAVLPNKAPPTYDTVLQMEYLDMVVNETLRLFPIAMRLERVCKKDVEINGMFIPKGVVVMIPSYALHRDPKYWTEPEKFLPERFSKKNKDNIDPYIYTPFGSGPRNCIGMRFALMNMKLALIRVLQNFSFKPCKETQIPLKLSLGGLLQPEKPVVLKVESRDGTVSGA

[5] = Rat brain fraction unbound; assay type: in vitro ADME; conditions: read-out: Rat Fu Brain

SMILES	solubility kinetic (Kinetic solubility)	fraction unbound [1]	clearance (Rat in vivo clearance)	IC50 (1A2)	IC50 (2C9)	CLint scaled [2]	Rat CLhep [2]	IC50 (2D6)	Kp (Brain-plasma partition)	unbound brain-to-plasma partition coefficient (Kp,uu) (Brain-plasma partition)	CLint scaled [3]	Human CLhep [3]	fraction unbound [4]	IC50 (3A4)	fraction unbound [5]
COCCOc1nccc2cc(Nc3n[nH]c4cccnc34)ccc12 [Compound 67]	5.5 ± 0.5 µM (≈ 1.84 µg/mL)	0.024	82.2 mL/min/kg	4.76 µM	22 µM	113 mL/min/kg	43.2 mL/min/kg	> 30 µM	1.11	0.2	35.2 mL/min/kg	13.2 mL/min/kg	0.039	9.45 µM	0.007
c1cnc2c(Nc3ccc4c(O[C@@H]5CCCOC5)nccc4c3)n[nH]c2c1 [Compound 62]	10.3 ± 1.1 µM (≈ 3.72 µg/mL)	0.017		6.32 µM	3.96 µM	461 mL/min/kg	60.8 mL/min/kg	27.8 µM	3.38	0.36	58.3 mL/min/kg	15.4 mL/min/kg	0.038	4.76 µM	0.004
c1cc2cc(Nc3n[nH]c4nccnc34)ccc2c(O[C@@H]2CCOC2)n1 [Compound 58]		0.032	116 mL/min/kg	> 30 µM	> 30 µM	122 mL/min/kg	44.4 mL/min/kg	> 30 µM	1.29	0.33	32.4 mL/min/kg	12.7 mL/min/kg	0.055	> 30 µM	0.014
c1cnc2c(Nc3ccc4c(O[C@H]5CCOC5)nccc4c3)n[nH]c2c1 [Compound 64]	4.9 ± 0.6 µM (≈ 1.7 µg/mL)	0.02	59.8 mL/min/kg	7.99 µM	10.6 µM	94.8 mL/min/kg	40.3 mL/min/kg	> 30 µM	1.22	0.2	29.1 mL/min/kg	12.2 mL/min/kg	0.042	27.7 µM	0.007
c1cc2cc(Nc3n[nH]c4nccnc34)ccc2c(OCC2COCCO2)n1 (stereo not drawn) [Compound 86]	0.6 ± 0.2 µM (≈ 0.227 µg/mL)	0.063		> 30 µM	> 30 µM	58.1 mL/min/kg	31.7 mL/min/kg	> 30 µM	0.35	0.11	19 mL/min/kg	10.0 mL/min/kg	0.057	> 30 µM	0.018
c1cnc2c(Nc3ccc4c(O[C@H]5CCCOC5)nccc4c3)n[nH]c2c1 [Compound 61]		0.028	61 mL/min/kg	5.86 µM	6.04 µM	333 mL/min/kg	57.8 mL/min/kg	19.7 µM	1.83	0.23	44 mL/min/kg	14.2 mL/min/kg	0.04	4.29 µM	0.005
COCCOc1nccc2cc(Nc3n[nH]c4ncccc34)ccc12 [Compound 74]	0.8 ± 0.3 µM (≈ 0.268 µg/mL)	0.038		> 30 µM	> 30 µM	252 mL/min/kg	54.8 mL/min/kg	> 30 µM	0.59	0.1	32.3 mL/min/kg	12.7 mL/min/kg	0.041	> 30 µM	0.007
C[C@H]1C[C@H](Oc2nccc3cc(Nc4n[nH]c5ncccc45)ccc23)CO1 [Compound 88]	0.5 ± 0.2 µM (≈ 0.181 µg/mL)	0.01	43.3 mL/min/kg	17 µM	> 30 µM	79.9 mL/min/kg	37.3 mL/min/kg	> 30 µM	2.22	0.21	18.1 mL/min/kg	9.71 mL/min/kg	0.032	> 30 µM	0.003
COCCOc1nccc2cc(Nc3n[nH]c4nccnc34)ccc12 [Compound 81]	0.9 ± 0.2 µM (≈ 0.303 µg/mL)	0.032		0.79 µM	> 30 µM	74.4 mL/min/kg	36.1 mL/min/kg	> 30 µM	0.4	0.13	38.5 mL/min/kg	13.6 mL/min/kg	0.048	> 30 µM	0.015
c1cnc2c(Nc3ccc4c(OCC5COCCO5)nccc4c3)n[nH]c2c1 (stereo not drawn) [Compound 73]	2.4 ± 0.5 µM (≈ 0.906 µg/mL)	0.038	32.7 mL/min/kg	16.4 µM	15.3 µM	120 mL/min/kg	44.2 mL/min/kg	> 30 µM	0.57	0.15	26.5 mL/min/kg	11.5 mL/min/kg	0.039	29.5 µM	0.01
c1cnc2c(Nc3ccc4c(O[C@@H]5CCOC5)nccc4c3)n[nH]c2c1 [Compound 63]		0.018		3.96 µM	13.3 µM	181 mL/min/kg	50.5 mL/min/kg	> 30 µM	1.27	0.18	57.8 mL/min/kg	15.4 mL/min/kg	0.036	22.3 µM	0.005
c1cnc2[nH]nc(Nc3ccc4c(OCC5COCCO5)nccc4c3)c2c1 (stereo not drawn) [Compound 80]	1.4 ± 0.1 µM (≈ 0.528 µg/mL)	0.033		> 30 µM	26.9 µM	376 mL/min/kg	59.0 mL/min/kg	> 30 µM	0.46	0.09	22.4 mL/min/kg	10.8 mL/min/kg	0.037	> 30 µM	0.007
c1cnc2c(Nc3ccc4c(OC5CCOCC5)nccc4c3)n[nH]c2c1 [Compound 60]		0.02	81.6 mL/min/kg	5.68 µM	3.9 µM	94.1 mL/min/kg	40.1 mL/min/kg	23.5 µM	1.44	0.39	16.1 mL/min/kg	8.79 mL/min/kg	0.03	12.3 µM	0.008
C[C@H]1C[C@H](Oc2nccc3cc(Nc4n[nH]c5cccnc45)ccc23)CO1 [Compound 87]	0.7 ± 0.4 µM (≈ 0.253 µg/mL)		39.1 mL/min/kg	15.8 µM	1.85 µM	61 mL/min/kg	32.6 mL/min/kg	> 30 µM			16 mL/min/kg	9.07 mL/min/kg		> 30 µM	
c1cc2cc(Nc3n[nH]c4nccnc34)ccc2c(OCC2CCOC2)n1 (stereo not drawn) [Compound 85]	0.6 ± 0.1 µM (≈ 0.217 µg/mL)	0.026	36.9 mL/min/kg	> 30 µM	> 30 µM	95.7 mL/min/kg	40.4 mL/min/kg	> 30 µM	0.66	0.45	41.2 mL/min/kg	13.9 mL/min/kg	0.019	> 30 µM	0.013
CO[C@H](C)COc1nccc2cc(Nc3n[nH]c4cccnc34)ccc12 [Compound 70]	2.9 ± 0.4 µM (≈ 1.01 µg/mL)	0.017	74.2 mL/min/kg	4.96 µM	6.87 µM	238 mL/min/kg	54.1 mL/min/kg	22.5 µM	2.56	0.48	57 mL/min/kg	15.3 mL/min/kg	0.032	11.4 µM	0.006
